Read-outs that look alike come from different tables or passages of the source.
How the values were obtained:
HepG2-A16-CD81EGFP cells = conditions: average of 2 wells; for HepG2 1uM growth rep1 / HepG2 1uM growth rep2: HepG2, 1 µM compound treatment (10 mM stocks); for HepG2 1uM growth rep1 / HepG2 3uM growth rep1: replicate 1, normalized; for HepG2 1uM growth rep2 / HepG2 3uM growth rep2: replicate 2, normalized; for HepG2 3uM growth rep1 / HepG2 3uM growth rep2: HepG2, 3 µM compound treatment (10 mM stocks)
[1] = system: Plasmodium falciparum Dd2 asexual blood stage parasites; assay: microbe, parasite or virus in culture; set-up: species or system Plasmodium falciparum Dd2 in human erythrocytes; single determination (one 11-point concentration-response curve); conditions: Plasmodium falciparum, DD2, Erythrocyte, 72 h; read-out: AC50
[2] = system: P. berghei-ANKA-GFP-LucCON liver stage parasites in HepG2-A16-CD81EGFP cells; assay: P. berghei liver stage Pb-Luc assay, Method 1 (UCSD, 1536-well); format: cell-based, Plasmodium berghei; conditions: Plasmodium berghei, 48 h, P. berghei liver stage, average of 2 wells on a 1536 well plate; for activity at 1 µM: 1 µM compound treatment (10 mM stocks); for activity at 3 µM: 3 µM compound treatment (10 mM stocks)
[3] = replicate 1, normalized, read-out: PbLuc 1uM growth rep1
[4] = replicate 2, normalized, read-out: PbLuc 1uM growth rep2
[5] = replicate 1, normalized, read-out: PbLuc 3uM growth rep1
[6] = replicate 2, normalized, read-out: PbLuc 3uM growth rep2

COc1cc(C)cc(CN2CCC(Cc3ccccc3)CC2)c1O [MLS001178265-01]
HepG2 1uM growth rep1 (HepG2-A16-CD81EGFP cells): 101%
HepG2 1uM growth rep2 (HepG2-A16-CD81EGFP cells): 92%
HepG2 3uM growth rep1 (HepG2-A16-CD81EGFP cells): 87%
HepG2 3uM growth rep2 (HepG2-A16-CD81EGFP cells): 88%
AC50 [1]: 0.75 µM
activity at 1 µM [2, 3]: 83%
activity at 1 µM [2, 4]: 95%
activity at 3 µM [2, 5]: 81%
activity at 3 µM [2, 6]: 123%

CCOC(=O)c1c(CN2CCN(c3ccccc3)CC2)oc2cc(Br)c(O)cc12 [MLS001198242-01]
HepG2 1uM growth rep1 (HepG2-A16-CD81EGFP cells): 109%
HepG2 1uM growth rep2 (HepG2-A16-CD81EGFP cells): 100%
HepG2 3uM growth rep1 (HepG2-A16-CD81EGFP cells): 87%
HepG2 3uM growth rep2 (HepG2-A16-CD81EGFP cells): 95%
AC50 [1]: 1.88 µM
activity at 1 µM [2, 3]: 136%
activity at 1 µM [2, 4]: 107%
activity at 3 µM [2, 5]: 96%
activity at 3 µM [2, 6]: 86%

COc1cccc(-c2c(C#N)c(N)nc3c2c(C)nn3-c2ccccc2)c1O [MLS001214341-01]
HepG2 1uM growth rep1 (HepG2-A16-CD81EGFP cells): 104%
HepG2 1uM growth rep2 (HepG2-A16-CD81EGFP cells): 95%
HepG2 3uM growth rep1 (HepG2-A16-CD81EGFP cells): 90%
HepG2 3uM growth rep2 (HepG2-A16-CD81EGFP cells): 91%
AC50 [1]: 1.5 µM
activity at 1 µM [2, 3]: 118%
activity at 1 µM [2, 4]: 95%
activity at 3 µM [2, 5]: 106%
activity at 3 µM [2, 6]: 118%

COc1ccc(C2c3[nH]c4ccccc4c3C[C@H]3C(=O)N(C4CCN(Cc5ccccc5)CC4)CC(=O)N23)cc1OC (stereo partly drawn) [MLS001215281-01]
HepG2 1uM growth rep1 (HepG2-A16-CD81EGFP cells): 107%
HepG2 1uM growth rep2 (HepG2-A16-CD81EGFP cells): 95%
HepG2 3uM growth rep1 (HepG2-A16-CD81EGFP cells): 91%
HepG2 3uM growth rep2 (HepG2-A16-CD81EGFP cells): 90%
AC50 [1]: 2.99 µM
activity at 1 µM [2, 3]: 95%
activity at 1 µM [2, 4]: 94%
activity at 3 µM [2, 5]: 66%
activity at 3 µM [2, 6]: 79%

O=C(c1ccc([N+](=O)[O-])o1)N1CCN(c2nc3c(Cl)cccc3s2)CC1 [MLS001234208-01]
HepG2 1uM growth rep1 (HepG2-A16-CD81EGFP cells): 103%
HepG2 1uM growth rep2 (HepG2-A16-CD81EGFP cells): 93%
HepG2 3uM growth rep1 (HepG2-A16-CD81EGFP cells): 86%
HepG2 3uM growth rep2 (HepG2-A16-CD81EGFP cells): 94%
AC50 [1]: 4.22 µM
activity at 1 µM [2, 3]: 67%
activity at 1 µM [2, 4]: 72%
activity at 3 µM [2, 5]: 36%
activity at 3 µM [2, 6]: 52%

COc1ccc2nc(N3CCN(C(=O)c4ccc([N+](=O)[O-])o4)CC3)sc2c1 [MLS001234236-01]
HepG2 1uM growth rep1 (HepG2-A16-CD81EGFP cells): 91%
HepG2 1uM growth rep2 (HepG2-A16-CD81EGFP cells): 90%
HepG2 3uM growth rep1 (HepG2-A16-CD81EGFP cells): 89%
HepG2 3uM growth rep2 (HepG2-A16-CD81EGFP cells): 89%
AC50 [1]: 4.73 µM
activity at 1 µM [2, 3]: 100%
activity at 1 µM [2, 4]: 81%
activity at 3 µM [2, 5]: 91%
activity at 3 µM [2, 6]: 103%

COc1cccc2sc(N3CCN(C(=O)c4ccc([N+](=O)[O-])o4)CC3)nc12 [MLS001234267-01]
HepG2 1uM growth rep1 (HepG2-A16-CD81EGFP cells): 103%
HepG2 1uM growth rep2 (HepG2-A16-CD81EGFP cells): 96%
HepG2 3uM growth rep1 (HepG2-A16-CD81EGFP cells): 94%
HepG2 3uM growth rep2 (HepG2-A16-CD81EGFP cells): 93%
AC50 [1]: 4.73 µM
activity at 1 µM [2, 3]: 111%
activity at 1 µM [2, 4]: 94%
activity at 3 µM [2, 5]: 69%
activity at 3 µM [2, 6]: 79%

Cc1ccc(C)c2sc(N3CCN(C(=O)c4ccc([N+](=O)[O-])o4)CC3)nc12 [MLS001234268-01]
HepG2 1uM growth rep1 (HepG2-A16-CD81EGFP cells): 104%
HepG2 1uM growth rep2 (HepG2-A16-CD81EGFP cells): 96%
HepG2 3uM growth rep1 (HepG2-A16-CD81EGFP cells): 90%
HepG2 3uM growth rep2 (HepG2-A16-CD81EGFP cells): 99%
AC50 [1]: 4.73 µM
activity at 1 µM [2, 3]: 97%
activity at 1 µM [2, 4]: 91%
activity at 3 µM [2, 5]: 57%
activity at 3 µM [2, 6]: 53%

COc1cc2ccccc2cc1C(=O)N1CCCC(C(F)(F)F)C1 (stereo not drawn) [MLS002180647-01]
HepG2 1uM growth rep1 (HepG2-A16-CD81EGFP cells): 105%
HepG2 1uM growth rep2 (HepG2-A16-CD81EGFP cells): 90%
HepG2 3uM growth rep1 (HepG2-A16-CD81EGFP cells): 83%
HepG2 3uM growth rep2 (HepG2-A16-CD81EGFP cells): 89%
AC50 [1]: 5.31 µM
activity at 1 µM [2, 3]: 90%
activity at 1 µM [2, 4]: 108%
activity at 3 µM [2, 5]: 85%
activity at 3 µM [2, 6]: 115%

Reference: PMC7822874, “Chemoprotective antimalarials identified through quantitative high-throughput screening of Plasmodium blood and liver stage parasites” (Scientific Reports, 2021)
